Data published in patent publication US9926330B2, “Inhibitors of IRAK4 activity” (MERCK SHARP & DOHME CORP., priority 2014, dated 2018).

Target: GST tagged IRAK4 (Homo sapiens (Human), UniProt Q9NWZ3)
Experiment: IRAK4 Kinase Assay (IMAP fluorescence polarization)
Format: biochemical
Conditions: 0.5 nM GST tagged IRAK4, 100 nM fluorescent peptide substrate RP7030, 100 μM ATP, 30 minutes at 25° C., IMAP FP readout
Description: The kinase activity of IRAK4 is determined by its ability to catalyze the phosphorylation of a fluorescent polypeptide substrate. The extent of phosphorylation is measured using the IMAP technology (Molecular Devices) where the phosphorylated fluorescent substrate binds to the large M(III)-based nanoparticles which reduces the rotational speed of the substrate and thus increases its fluorescent polarization (FP).
20 μL reaction mixture contains 10 mM TriHCl, pH 7.2, 0.5 nM GST tagged IRAK4 (SignalChem), 100 nM fluorescent peptide substrate (RP7030, Molecular Devices), 100 μM ATP, 1 mM DDT, 1 mM MgCl2, and 0.01% Tween 20. The reaction is initiated by the addition of ATP. After incubation for 30 minutes at 25° C., 60 μL of Progressive IMAP Reagent (Molecular Devices) is added to stop the reaction. Change in RP7030's FP is determined by a FP reader (Analyst HT, LJL BioSystems).

GST tagged IRAK4, sequence (Q9NWZ3 whole entry): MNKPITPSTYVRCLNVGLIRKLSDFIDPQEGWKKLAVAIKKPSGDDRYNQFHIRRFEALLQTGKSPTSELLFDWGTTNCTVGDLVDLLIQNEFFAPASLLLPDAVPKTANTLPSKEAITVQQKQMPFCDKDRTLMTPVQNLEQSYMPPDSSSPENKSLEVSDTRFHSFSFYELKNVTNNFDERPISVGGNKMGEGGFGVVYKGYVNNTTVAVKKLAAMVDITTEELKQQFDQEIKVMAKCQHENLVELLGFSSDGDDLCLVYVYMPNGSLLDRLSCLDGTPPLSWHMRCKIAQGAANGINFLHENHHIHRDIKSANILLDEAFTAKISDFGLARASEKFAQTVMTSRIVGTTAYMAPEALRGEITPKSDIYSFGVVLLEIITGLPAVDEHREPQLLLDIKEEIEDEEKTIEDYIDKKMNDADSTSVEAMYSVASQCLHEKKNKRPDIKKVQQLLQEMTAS

Compound Cc1cc2ncnc(N[C@H]3CC[C@H](N(C)C)CC3)c2cc1C [Example 1-1, (trans)-N1-(6,7-dimethylquinazolin-4-yl)-N4,N4-dimethylcyclohexane-1,4-diamine] has an IC50 of 1210 nM.

Cc1ccc2ncnc(N[C@H]3CC[C@H](N(C)C)CC3)c2c1 [Example 1-2, trans-N,N-dimethyl-N′-(6-methylquinazolin-4-yl)cyclohexane-1,4-diamine] showed an IC50 of 19 nM.

For Cc1ccc2ncnc(N[C@H]3CC[C@H](N4CCOCC4)CC3)c2c1 [Example 1-3, 6-methyl-N-(trans-4-morpholin-4-ylcyclohexyl)quinazolin-4-amine], the IC50 was 12 nM.

With FC(F)(F)c1ccc2ncnc(N[C@H]3CC[C@H](N4CCOCC4)CC3)c2c1 [Example 1-4, N-(trans-4-morpholin-4-ylcyclohexyl)-6-(trifluoromethyl)quinazolin-4-amine] the IC50 was 15 nM.

Work on Cc1cc2c(N[C@H]3CC[C@H](N4CCOCC4)CC3)ncnc2cc1F [Example 1-5, 7-fluoro-6-methyl-N-(trans-4-morpholin-4-ylcyclohexyl)quinazolin-4-amine] yielded an IC50 of 32 nM.

CN(C)[C@H]1CC[C@H](Nc2ncnc3ccc(C(F)(F)F)cc23)CC1 [Example 1-6, trans-N,N-dimethyl-N′-[6-(trifluoromethyl)quinazolin-4-yl]cyclohexane-1,4-diamine] was tested, and the IC50 was 9 nM.

Cc1ccc2ncnc(O[C@H]3CC[C@H](N4CCOCC4)CC3)c2c1 [Example 1-7, 4-((trans)-4-((6-methylquinazolin-4-yl)oxy)cyclohexyl)morpholine] was tested, and the IC50 was 65 nM.

Cc1ccc2ncnc(N[C@H]3CC[C@H](N4CC(S(C)(=O)=O)C4)CC3)c2c1 [Example 2-1, 6-methyl-N-((1R,4R)-4-(3-(methylsulfonyl)azetidin-1-yl)cyclohexyl)quinazolin-4-amine] was tested, and the IC50 was 384 nM.

Cc1ccc2ncnc(N[C@H]3CC[C@@H](N4CC(F)C4)CC3)c2c1 [Example 2-2, N-[cis-4-(3-fluoroazetidin-1-yl)cyclohexyl]-6-methylquinazolin-4-amine] showed an IC50 of 1360 nM.

Work on Cc1ccc2ncnc(N[C@H]3CC[C@H](N4CC(F)C4)CC3)c2c1 [Example 2-3, N-[trans-4-(3-fluoroazetidin-1-yl)cyclohexyl]-6-methylquinazolin-4-amine] yielded an IC50 of 94 nM.

Compound Cc1ccc2ncnc(N[C@H]3CC[C@@H](N4CCNC(=O)C4)CC3)c2c1 [Example 2-4, 4-{cis-4-[(6-methylquinazolin-4-yl)amino]cyclohexyl}piperazin-2-one] has an IC50 of 2200 nM.

Cc1ccc2ncnc(N[C@H]3CC[C@H](N4CCNC(=O)C4)CC3)c2c1 [Example 2-5, 4-{trans-4-[(6-methylquinazolin-4-yl)amino]cyclohexyl}piperazin-2-one] showed an IC50 of 113 nM.

Compound Cc1ccc2ncnc(N[C@H]3CC[C@H](N4CC(O)C4)CC3)c2c1 [Example 2-6, 1-{trans-4-[(6-methylquinazolin-4-yl)amino]cyclohexyl}azetidin-3-ol] has an IC50 of 2350 nM.

In the case of Cc1ccc2ncnc(N[C@H]3CC[C@@H](N4CC(O)C4)CC3)c2c1 [Example 2-7, 1-{cis-4-[(6-methylquinazolin-4-yl)amino]cyclohexyl}azetidin-3-ol], the IC50 is reported as 37 nM.

Cc1ccc2ncnc(N[C@H]3CC[C@H](N4CCC(F)(F)C4)CC3)c2c1 [Example 2-8, N-[trans-4-(3,3-difluoropyrrolidin-1-yl)cyclohexyl]-6-methylquinazolin-4-amine] showed an IC50 of 234 nM.

Work on Cc1ccc2ncnc(N[C@H]3CC[C@H](N4CCC5(COC5)C4)CC3)c2c1 [Example 2-9, 6-methyl-N-[trans-4-(2-oxa-6-azaspiro[3.4]oct-6-yl)cyclohexyl]quinazolin-4-amine] yielded an IC50 of 95 nM.

Work on Cc1ccc2ncnc(N[C@H]3CC[C@@H](N4CC(S(C)(=O)=O)C4)CC3)c2c1 [Example 2-10, 6-methyl-N-{cis-4-[3-(methylsulfonyl)azetidin-1-yl]cyclohexyl}quinazolin-4-amine] yielded an IC50 of 384 nM.

Compound Cc1ccc2ncnc(NC3CCC(N4CCC(C(F)(F)F)CC4)CC3)c2c1 (stereo not drawn) [Example 2-11, 6-methyl-N-{4-[4-(trifluoromethyl)piperidin-1-yl]cyclohexyl}quinazolin-4-amine] has an IC50 of 88 nM.
